The Ki is a dissociation constant, usually derived from enzyme kinetics or from competition with a known ligand. As a reminder, the Kb is the affinity of an antagonist, worked out from how it opposes an agonist. Low values mean higher antagonist affinity, high ones lower antagonist affinity. As a reminder, the pKi is −log10 of the Ki, conventionally taken in molar units. Usually melting point stands for the temperature of the solid-liquid transition.

The values that follow come from US7189720B2 (H. Lundbeck A/S, priority 1999, dated 2007).

Each structure is given as a SMILES string. pKi: −log10 of the molar value. Counter-ions that a name gives are not always drawn. Like-named read-outs stand apart in the source and are kept apart here.

Data set [1] has as its target T1, human Y5 receptor (Homo sapiens, UniProt Q15761).
T1 construct: expressed in transfected cells; host or cells: mouse fibroblast LM(tk-) cells, e.g. L-hY5-7 (ATCC CRL-11995)
T1 sequence (Q15761 1-445): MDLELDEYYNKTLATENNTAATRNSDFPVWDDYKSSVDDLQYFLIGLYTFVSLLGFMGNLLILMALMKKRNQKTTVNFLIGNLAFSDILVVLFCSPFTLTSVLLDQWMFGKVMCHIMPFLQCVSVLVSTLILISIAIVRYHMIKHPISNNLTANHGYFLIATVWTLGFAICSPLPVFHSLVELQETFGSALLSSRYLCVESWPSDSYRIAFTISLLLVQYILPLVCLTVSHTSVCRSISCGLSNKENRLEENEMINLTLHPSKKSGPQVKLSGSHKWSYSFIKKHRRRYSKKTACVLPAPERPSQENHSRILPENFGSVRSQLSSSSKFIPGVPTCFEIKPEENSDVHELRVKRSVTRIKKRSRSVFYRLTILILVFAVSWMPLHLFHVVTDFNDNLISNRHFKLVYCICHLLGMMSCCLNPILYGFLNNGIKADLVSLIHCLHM
In words: Radioligand binding to membranes, cloned human Y5 receptor.

Data set [2] addresses T1, human Y5 receptor. In words: Functional assay: radioimmunoassay of cAMP in stably transfected cells. The data set is classed as cell-based. The settings on record: Functional Antagonism Data, Table 7. The procedure: LM(tk-) cells stably transfected with the human Y5 receptor were routinely converted from an adherent monolayer to a viable suspension. Adherent cells were harvested with trypsin at the point of confluence, resuspended in a minimal volume of complete DMEM for a cell count, and further diluted to a concentration of 10^6 cells/ml in suspension media (10% bovine calf serum, 10% 10× Medium 199 (Gibco), 9 mM NaHCO3, 25 mM glucose, 2 mM L-glutamine, 100 units/ml penicillin/100 μg/ml streptomycin, and 0.05% methyl cellulose). The cell suspension was maintained in a shaking incubator at 37° C., 5% CO2 for 24 hours. Membranes harvested from cells grown in this manner may be stored as large, uniform batches in liquid nitrogen. Alternatively, cells may be returned to adherent cell culture in complete DMEM by distribution into 96-well microtiter plates coated with poly-D-lysine (0.01 mg/ml) followed by incubation at 37° C., 5% CO2 for 24 hours.
Stably transfected cells were seeded into 96-well microtiter plates and cultured until confluent. […] Cells were washed in […] buffered saline, or HBS (150 mM NaCl, 20 mM HEPES, 1 mM CaCl2, 5 mM KCl, 1 mM MgCl2, and 10 mM glucose) supplemented with 0.1% bovine serum albumin plus 5 mM theophylline and pre-equilibrated in the same solution for 20 min at 37° C. in 5% CO2. Cells were then incubated 5 min with 10 μM forskolin and various concentrations of receptor-selective ligands. The assay was terminated by the removal of HBS and acidification of the cells with 100 mM HCl. Intracellular cAMP was extracted and quantified with a modified version of a magnetic bead-based radioimmunoassay (Advanced Magnetics, Cambridge, Mass.). The final antigen/antibody complex was separated from free ^125I-cAMP by vacuum filtration through a PVDF filter in a microtiter plate (Millipore, Bedford, Mass.). Filters were punched and counted for ^125I, in a Packard gamma counter.

For the next data set, the target named is T2, human Y1 receptor (Homo sapiens, UniProt P25929).
T2 construct: expressed in transfected cells; host or cells: human embryonic kidney 293 cells, e.g. 293-hY1-5 (ATCC CRL-12121)
T2 sequence (P25929 1-384): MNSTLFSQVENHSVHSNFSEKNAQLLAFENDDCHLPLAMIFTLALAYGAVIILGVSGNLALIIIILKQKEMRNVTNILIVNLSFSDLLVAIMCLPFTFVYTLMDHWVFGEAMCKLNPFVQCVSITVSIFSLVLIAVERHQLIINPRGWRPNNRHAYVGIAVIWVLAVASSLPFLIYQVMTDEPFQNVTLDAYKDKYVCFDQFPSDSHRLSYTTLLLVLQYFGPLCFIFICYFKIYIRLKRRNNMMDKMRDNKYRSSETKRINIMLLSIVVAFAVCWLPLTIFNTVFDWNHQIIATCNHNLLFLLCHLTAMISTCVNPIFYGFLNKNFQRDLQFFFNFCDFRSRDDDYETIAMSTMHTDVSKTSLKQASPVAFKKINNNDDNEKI
In words: Radioligand binding to membranes, cloned human Y1 receptor. The settings on record: text b745; read-out: Ki (nM) NPY (Y1).

Another data set deals with T3, human Y4 receptor (Homo sapiens, UniProt P50391).
T3 construct: expressed in transfected cells; host or cells: mouse fibroblast LM(tk-) cells, e.g. L-hY4-3 (ATCC CRL-11779)
T3 sequence (P50391 whole entry): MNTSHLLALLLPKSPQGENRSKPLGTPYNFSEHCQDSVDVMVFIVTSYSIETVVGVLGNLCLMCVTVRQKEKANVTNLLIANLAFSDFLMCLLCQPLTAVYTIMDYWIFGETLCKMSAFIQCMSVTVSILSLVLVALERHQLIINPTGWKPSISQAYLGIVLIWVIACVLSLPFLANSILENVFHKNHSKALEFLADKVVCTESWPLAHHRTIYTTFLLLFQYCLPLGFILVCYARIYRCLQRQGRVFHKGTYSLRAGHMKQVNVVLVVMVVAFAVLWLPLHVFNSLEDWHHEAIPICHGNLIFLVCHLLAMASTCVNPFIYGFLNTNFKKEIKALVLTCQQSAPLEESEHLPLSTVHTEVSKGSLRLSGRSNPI
In words: Radioligand binding to membranes, cloned human Y4 receptor. Particulars: text b745; read-out: Ki (nM) NPY (Y4).

Another data set deals with T4, human Y2 receptor (Homo sapiens, UniProt P49146).
T4 sequence (P49146 1-381): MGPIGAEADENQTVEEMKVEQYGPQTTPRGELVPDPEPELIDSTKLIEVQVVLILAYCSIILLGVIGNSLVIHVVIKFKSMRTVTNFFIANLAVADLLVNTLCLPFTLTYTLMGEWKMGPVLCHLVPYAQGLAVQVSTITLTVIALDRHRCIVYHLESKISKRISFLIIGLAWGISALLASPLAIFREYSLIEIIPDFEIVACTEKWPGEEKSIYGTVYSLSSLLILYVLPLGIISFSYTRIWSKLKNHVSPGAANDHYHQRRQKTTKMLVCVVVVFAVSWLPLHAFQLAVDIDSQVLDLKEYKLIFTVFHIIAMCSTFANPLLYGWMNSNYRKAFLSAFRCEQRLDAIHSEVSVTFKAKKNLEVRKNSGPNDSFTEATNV
Briefly: Radioligand binding to membranes, cloned human Y2 receptor.

[3] abbreviates: Table 6, read-out: Ki, nM hNPY-5.

Method for human Y1 receptor: (§1) Binding of the compounds of the present invention to human Y1, Y2, Y4, and Y5 receptors was evaluated using stably transfected 293 or LM(tk-) cells as described above.
(§2) Membranes were harvested from COS-7 cells 48 hours after transient transfection. Adherent cells were washed twice in ice-cold phosphate buffered saline (138 mM NaCl, 8.1 mM Na2HPO4, 2.5 mM KCl, 1.2 mM KH2PO4, 0.9 mM CaCl2, 0.5 mM MgCl2, pH 7.4) and lysed by sonication in ice-cold sonication buffer (20 mM Tris-HCl, 5 mM EDTA, pH 7.7). Large particles and debris were cleared by low speed centrifugation (200×g, 5 min, 4° C.). Membranes were collected from the supernatant fraction by centrifugation (32,000×g, 18 min, 4° C.), washed with ice-cold hypotonic buffer, and collected again by centrifugation (32,000×g, 18 min, 4° C.). The final membrane pellet was resuspended by sonication into a small volume of ice-cold binding buffer (˜1 ml for every 5 plates: 10 mM NaCl, 20 mM HEPES, 0.22 mM KH2PO4, 1.26 mM CaCl2, 0.81 mM MgSO4, pH 7.4). Protein concentration was measured by the Bradford method (Bradford, 1976) using Bio-Rad Reagent, with bovine serum albumin as a standard. Membranes were held on ice for up to one hour and used fresh, or flash-frozen and stored in liquid nitrogen.
(§3) Membranes were prepared similarly from 293, LM(tk-), and NIH-3T3 cells.
(§4) Membrane suspensions were diluted in binding buffer supplemented with 0.1% bovine serum albumin to yield an optimal membrane protein concentration so that ^125I-PYY (or alternative radioligand such as ^125I-NPY, ^125I-NYY3-36, or ^125I-[Leu^31Pro^34]PYY) bound by membranes in the assay was less than 10% of ^125I-PYY (or alternative radioligand) delivered to the sample (100,000 dpm/sample=0.08 nM for competition binding assays). ^125I-PYY (or alternative radioligand) and peptide competitors were also diluted to desired concentrations in supplemented binding buffer. Individual samples were then prepared in 96-well polypropylene microtiter plates by mixing ^125I-PYY (25 μL) (or alternative radioligand), competing peptides or supplemented binding buffer (25 μL), and finally, membrane suspensions (200 μL). Samples were incubated in a 30° C. water bath with constant shaking for 120 min. Incubations were terminated by filtration over Whatman GF/C filters (pre-coated with 1% polyethyleneimine and air-dried before use), followed by washing with 5 mL of ice-cold binding buffer. Filter-trapped membranes were impregnated with MeltiLex solid scintillant (Wallac, Turku, Finland) and counted for ^125I in a Wallac Beta-Plate Reader. Alternatively, incubations were carried out in GF/C filter plates (pre-coated with 1% polyethyleneimine and air-dried before use), followed by vacuum filtration and three washes of 300 μL of ice-cold binding buffer. 50 μL of UltimaGold (Packard) scintillant were added and counted for ^125I, in a Wallac MicroBeta Trilux. Non-specific binding was defined by 300 nM human NPY for all receptors except the Y4 subtypes; 100 nM human PP was used for the human Y4 and 100 nM rat PP for the rat Y4.
Method for human Y2 receptor: as §1, §2, §3, §4
Method for human Y4 receptor: as §1, §2, §3, §4

`CCNc1nc(NCC)nc(NCC2CCC(CNS(=O)(=O)c3cccs3)CC2)n1` (centres unmarked) [Example 37, N2-[4-([4,6-di(ethylamino)-1,3,5-triazin-2-yl]aminomethyl)cyclohexyl]methyl-2-thiophenesulfonamide]: the Ki at human Y5 receptor [1] (Table 2, read-out: Ki (nM) hNPY-5) worked out at 55 nM. Moreover, on human Y5 receptor [2], the Kb was 158 nM.
In the case of `CNc1nc(NCC2CCC(CNS(=O)(=O)c3cccc4ccccc34)CC2)nc(NC(C)C)n1` (centres unmarked) [Example 1, N1-{[4-({[4-(Isopropylamino)-6-(methylamino)-1,3,5-triazin-2-yl]amino}methyl)cyclohexyl]methyl}-1-naphthalenesulfonamide], on human Y5 receptor [1] (Table 1, read-out: Ki (nM) hNPY-5), the Ki came to 13 nM. The same compound showed a Kb at human Y5 receptor [2] of 200 nM.
In the case of `CC(C)Nc1nc(Cl)nc(NCC2CCC(CNS(=O)(=O)c3cccc4ccccc34)CC2)n1` (centres unmarked) [Example 49, N1-{[4-({[4-chloro-6-(isopropylamino)-1,3,5-triazin-2-yl]amino}methyl)cyclohexyl]methyl}-1-naphthalenesulfonamide], the Ki at human Y5 receptor [1] (Table 3, read-out: Ki (nM) hNPY-5) was 138 nM; on human Y1 receptor it was greater than 100000 nM; at human Y4 receptor, greater than 100000 nM. The Kb on human Y5 receptor [2] was 1000 nM. At human Y2 receptor, the pKi is less than 4.00.
With `Cc1nc(-c2csc(N[C@H]3CC[C@H](CNS(=O)(=O)N(C)C)CC3)n2)c(C)s1` [Example 98, trans-N′-[(4-[4-(2,5-dimethyl-1,3-thiazol-4-yl)-1,3-thiazol-2-yl]aminocyclohexyl)methyl]-N,N-dimethylsulfamide], at human Y5 receptor [1] (Table 5, read-out: Ki, nM hNPY-5), the Ki came out at 1.5 nM. Also, the Kb at human Y5 receptor [2] was 3.98 nM.
With `O=S(=O)(NC[C@H]1CC[C@H](Nc2nc3c(s2)CCSc2ccccc2-3)CC1)c1cccc2cccnc12` [Example 157, N8-{[4-(4,5-Dihydrobenzo[2,3]thiepino[4,5-d][1,3]thiazol-2-ylamino)cyclohexyl]methyl}-8-quinolinesulfonamide], the Ki at human Y5 receptor [1] (setting [3]) stood at 5.7 nM. The Kb on human Y5 receptor [2] was 20 nM.
Regarding `COc1ccc(C)cc1S(=O)(=O)N[C@H]1CC[C@H](CNc2nc(-c3ccccn3)cs2)CC1` (as salt: chloride) [Example 83, trans-2-(4-(2-Methoxy-5-methylphenyl)sulfonylamino)-cyclohexylmethylamino-4-(2-pyridyl)thiazole dihydrogen chloride], the melting point fell in the range of 111 to 113 °C.
In the case of `CS(=O)(=O)NC[C@H]1CC[C@H](Nc2nc3c(s2)CCSc2ccccc2-3)CC1` [Example 104, N-{[4-(4,5-Dihydrobenzo[2,3]thiepino[4,5-d][1,3]thiazol-2-ylamino)cyclohexyl]methyl}-methanesulfonamide], the inhibition constant Ki at human Y5 receptor [1] (setting [3]) was 6.8 nM. In addition, the Kb on human Y5 receptor [2] was 2.51 nM.
The compound `COc1ccc(C)cc1S(=O)(=O)NCCCCCNc1nc(-c2cccnc2)cs1` (as salt: chloride) [Example 72, 2-(5-(2-Methoxy-5-methyl)phenylsulfonylamino)pentylamino-4-(3-pyridyl)thiazole hydrogen chloride] registered a melting point of 119 to 120 °C.
